Test results: ChEMBL document CHEMBL1154364, “2-Benzimidazolyl-9-(chroman-4-yl)-purinone derivatives as JAK3 inhibitors” (Bioorg Med Chem Lett, 2009)

Target: Tyrosine-protein kinase JAK2 (Homo sapiens, UniProt O60674)
Sequence (O60674 whole entry): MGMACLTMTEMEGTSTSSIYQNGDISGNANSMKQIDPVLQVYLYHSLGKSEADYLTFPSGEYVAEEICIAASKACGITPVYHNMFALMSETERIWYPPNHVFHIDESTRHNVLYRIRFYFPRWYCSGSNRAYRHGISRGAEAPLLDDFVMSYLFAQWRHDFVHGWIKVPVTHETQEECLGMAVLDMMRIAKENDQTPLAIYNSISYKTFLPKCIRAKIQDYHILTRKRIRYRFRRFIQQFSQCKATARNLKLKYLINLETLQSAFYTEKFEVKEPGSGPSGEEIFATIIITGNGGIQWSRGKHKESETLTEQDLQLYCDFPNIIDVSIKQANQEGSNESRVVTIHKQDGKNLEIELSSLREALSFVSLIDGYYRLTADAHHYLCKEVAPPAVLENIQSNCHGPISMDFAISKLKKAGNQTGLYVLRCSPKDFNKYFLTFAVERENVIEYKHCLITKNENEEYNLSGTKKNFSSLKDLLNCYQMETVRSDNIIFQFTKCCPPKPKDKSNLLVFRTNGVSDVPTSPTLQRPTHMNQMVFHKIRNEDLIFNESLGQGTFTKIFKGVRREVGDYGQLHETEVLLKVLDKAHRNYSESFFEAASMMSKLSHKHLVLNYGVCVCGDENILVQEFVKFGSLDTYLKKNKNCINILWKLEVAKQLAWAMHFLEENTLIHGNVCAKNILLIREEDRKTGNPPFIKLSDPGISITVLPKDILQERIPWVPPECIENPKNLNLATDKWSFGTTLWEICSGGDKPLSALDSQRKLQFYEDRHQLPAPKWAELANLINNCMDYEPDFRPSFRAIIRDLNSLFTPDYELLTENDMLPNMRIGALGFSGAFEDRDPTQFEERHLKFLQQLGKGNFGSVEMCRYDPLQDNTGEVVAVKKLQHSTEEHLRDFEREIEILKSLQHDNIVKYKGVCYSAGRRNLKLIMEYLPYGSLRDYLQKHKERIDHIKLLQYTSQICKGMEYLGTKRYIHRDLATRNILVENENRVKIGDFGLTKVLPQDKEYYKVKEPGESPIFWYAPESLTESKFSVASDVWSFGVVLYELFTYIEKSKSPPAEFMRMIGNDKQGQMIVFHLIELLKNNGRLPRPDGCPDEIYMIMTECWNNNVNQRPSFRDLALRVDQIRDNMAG
Description: Inhibition of human JAK2 (532-1132) by time resolved fluorescence assay

Row | Compound | IC50 [µM]
1 | O=c1[nH]c2cnc(-n3cnc4ccc(F)cc43)nc2n1Cc1cccc(F)c1F | 1
2 | N#Cc1ccc2ncn(-c3ncc4[nH]c(=O)n(C5CCOCC5)c4n3)c2c1 | 0.47
3 | O=c1[nH]c2cnc(-n3cnc4ccc(C(F)(F)F)cc43)nc2n1C1CCOCC1 | 0.56
4 | N#Cc1ccc2ncn(-c3ncc4[nH]c(=O)n(Cc5c(Cl)cccc5Cl)c4n3)c2c1 | 1.55
5 | O=c1[nH]c2cnc(-n3cnc4ccccc43)nc2n1C1CCOc2cccc(F)c21 (racemic) | 0.097
6 | O=c1[nH]c2cnc(-n3cnc4ccccc43)nc2n1C1CCOc2cc(F)ccc21 (racemic) | 0.095
7 | O=c1[nH]c2cnc(-n3cnc4ccc(Cl)cc43)nc2n1C1CCOCC1 | 0.393
8 | O=c1[nH]c2cnc(-n3cnc4ccccc43)nc2n1[C@@H]1CCOc2c(F)cccc21 | 0.333
9 | O=c1[nH]c2cnc(-n3cnc4ccccc43)nc2n1C1CCOc2ccc(Cl)cc21 (racemic) | 0.5
10 | O=c1[nH]c2cnc(-n3cnc4cc(C(F)(F)F)ccc43)nc2n1C1CCOCC1 | 1.8

The remaining compounds from weak to strong by IC50, led by results:

Row | IC50 [µM] | Compound
11 | 7 | O=c1[nH]c2cnc(-n3cnc4ccccc43)nc2n1[C@H]1CCOc2c(F)cccc21
12 | 3.4 | O=c1[nH]c2cnc(-n3cnc4ccc(F)cc43)nc2n1C1CCOCC1
13 | 0.32 | O=c1[nH]c2cnc(-n3cnc4ccc(F)cc43)nc2n1Cc1c(F)cccc1F
14 | 0.285 | O=c1[nH]c2cnc(-n3cnc4ccccc43)nc2n1C1CCOc2c(F)cccc21 (racemic)
15 | 0.27 | N#Cc1ccc2ncn(-c3ncc4[nH]c(=O)n(Cc5cccc(F)c5F)c4n3)c2c1
16 | 0.17 | O=c1[nH]c2cnc(-n3cnc4ccccc43)nc2n1C1CCOc2ccccc21 (racemic)
17 | 0.083 | O=c1[nH]c2cnc(-n3cnc4ccccc43)nc2n1C1CCOc2ccc(F)cc21 (racemic)
18 | 0.056 | O=c1[nH]c2cnc(-n3cnc4ccc(Cl)cc43)nc2n1[C@@H]1CCOc2c(F)cccc21
19 | 0.028 | N#Cc1ccc2ncn(-c3ncc4[nH]c(=O)n(Cc5c(F)cccc5F)c4n3)c2c1
20 | 0.005 | N#Cc1ccc2ncn(-c3ncc4[nH]c(=O)n([C@@H]5CCOc6c(F)cccc65)c4n3)c2c1
